{
  "source": "paper PMC10949855",
  "about": "(Journal of veterinary pharmacology and therapeutics, 2022)",
  "origin": "cited, not measured here",
  "key": {"dogs": {"system": "dogs", "conditions": "cited from earlier work"}, "[1]": {"conditions": "after SC and IM administration at 0.25 mg/kg, dogs; ref Pfeffer et al., 1980; cited from earlier work"}},
  "note": "Entries after “also recorded” stand apart in the source; their conditions may differ. Read-outs that look alike come from different tables or passages of the source.",
  "data": [
    {"smiles": "Oc1ccc2c(c1)[C@@]13CCCC[C@@]1(O)[C@@H](C2)N(CC1CCC1)CC3", "note": "[butorphanol]", "values": [
      {"measurement": "antinociception, colonic distension model", "setting": "dogs; 0.4 mg/kg IV, 30 minutes (latest time point assessed), ref Houghton, et. al., 1991", "result": "significant effects; also recorded: significant antinociception"},
      {"measurement": "antinociception, colonic distension model", "setting": "dogs; 0.8 mg/kg SC, 45 minutes, ref Sawyer, et. al. 1991", "result": "did produce a significant effect; also recorded: significant antinociception"},
      {"measurement": "response, colonic distension nociceptive model", "setting": "dogs; doses up to 0.4 mg/kg SC, 45 minutes, ref Sawyer et al., 1991", "result": "failed to produce a significant response"},
      {"measurement": "CMAX range", "setting": "[1]", "result": "25 to 33", "unit": "ng/mL"},
      {"measurement": "terminal half-life", "setting": "[1]", "result": "1.5 to 1.7", "unit": "h"}
    ]}
  ]
}
